According to ChEMBL document CHEMBL1139215, “Discovery of aminofurazan-azabenzimidazoles as inhibitors of Rho-kinase with high kinase selectivity and antihypertensive activity” (J Med Chem, 2007):
Activity calls are given as the source filed them. The rule behind the calls is not given here.

What was measured:
[1] = Half life in Sprague-Dawley rat at 1 mg/kg, iv; type: ADME, organism-based; design: dose 1 mg/kg, route intravenous; conditions: in vivo
[2] = Cmax in Sprague-Dawley rat at 2.2 mg/kg, po; type: ADME, organism-based; design: dose 2.2 mg/kg, route oral; conditions: in vivo
[3] = Oral bioavailability in Sprague-Dawley rat at 2.2 mg/kg, po; type: ADME, organism-based; conditions: in vivo
[4] = biological target: Rho-associated protein kinase 1 (Homo sapiens, UniProt Q13464); test: Inhibition of human ROCK1 in Sf9 cells; type: cell-based
Rho-associated protein kinase 1, sequence (Q13464 whole entry): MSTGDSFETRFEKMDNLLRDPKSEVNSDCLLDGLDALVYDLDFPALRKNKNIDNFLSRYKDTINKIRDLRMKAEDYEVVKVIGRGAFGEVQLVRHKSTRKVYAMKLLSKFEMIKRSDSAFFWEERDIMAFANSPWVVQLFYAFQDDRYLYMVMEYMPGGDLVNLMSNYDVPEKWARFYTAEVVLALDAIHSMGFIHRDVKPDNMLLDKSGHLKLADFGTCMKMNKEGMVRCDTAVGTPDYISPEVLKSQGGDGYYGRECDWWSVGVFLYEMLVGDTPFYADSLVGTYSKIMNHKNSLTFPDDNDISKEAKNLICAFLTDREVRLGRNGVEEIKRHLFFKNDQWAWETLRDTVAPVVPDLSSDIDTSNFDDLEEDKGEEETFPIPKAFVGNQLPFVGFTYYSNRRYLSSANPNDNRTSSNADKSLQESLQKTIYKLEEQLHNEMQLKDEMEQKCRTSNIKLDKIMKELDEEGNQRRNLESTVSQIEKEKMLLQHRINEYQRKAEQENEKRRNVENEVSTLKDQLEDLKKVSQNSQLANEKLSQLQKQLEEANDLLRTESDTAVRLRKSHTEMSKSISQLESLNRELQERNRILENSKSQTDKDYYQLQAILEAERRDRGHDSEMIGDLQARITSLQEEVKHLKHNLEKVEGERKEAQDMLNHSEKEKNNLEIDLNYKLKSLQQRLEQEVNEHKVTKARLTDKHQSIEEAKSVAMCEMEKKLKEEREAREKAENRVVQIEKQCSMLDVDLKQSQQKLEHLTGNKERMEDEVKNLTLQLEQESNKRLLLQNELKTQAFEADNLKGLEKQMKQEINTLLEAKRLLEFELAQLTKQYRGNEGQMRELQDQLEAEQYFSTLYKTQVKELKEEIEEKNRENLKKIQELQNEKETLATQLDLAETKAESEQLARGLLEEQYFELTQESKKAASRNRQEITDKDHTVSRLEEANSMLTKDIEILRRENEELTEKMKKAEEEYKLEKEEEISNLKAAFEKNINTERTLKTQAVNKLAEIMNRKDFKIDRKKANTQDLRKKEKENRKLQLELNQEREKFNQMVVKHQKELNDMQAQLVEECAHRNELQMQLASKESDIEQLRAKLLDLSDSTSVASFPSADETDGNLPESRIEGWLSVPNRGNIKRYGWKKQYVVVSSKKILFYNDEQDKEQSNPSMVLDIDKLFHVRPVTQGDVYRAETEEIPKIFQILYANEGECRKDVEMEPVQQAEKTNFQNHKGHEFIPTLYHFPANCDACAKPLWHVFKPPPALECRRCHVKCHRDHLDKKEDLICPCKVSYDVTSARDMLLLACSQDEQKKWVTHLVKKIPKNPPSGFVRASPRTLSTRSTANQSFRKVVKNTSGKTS

[5] = Clearance in Sprague-Dawley rat at 1 mg/kg, iv; type: ADME, organism-based; design: dose 1 mg/kg, route intravenous; conditions: in vivo
Homo sapiens [6] = organism: Homo sapiens; test: Selectivity for ROCK1 over RSK1
Homo sapiens [7] = organism: Homo sapiens; test: Selectivity for ROCK1 over MSK1
Aorta = test: Relaxation of phenylephrine contracted Sprague-Dawley rat aortic rings; type: functional, tissue-based
[8] = Volume of distribution in Sprague-Dawley rat at 1 mg/kg, iv; type: ADME, organism-based; design: dose 1 mg/kg, route intravenous; conditions: in vivo, read-out: Vdss
Homo sapiens [9] = organism: Homo sapiens; test: Selectivity for ROCK1 over p70S6K
[10] = Cmax in Sprague-Dawley rat at 1 mg/kg, iv; type: ADME, organism-based; design: dose 1 mg/kg, route intravenous; conditions: in vivo
[11] = Cmax in Sprague-Dawley rat at 1.2 mg/kg, iv; type: ADME, organism-based; design: dose 1.2 mg/kg, route intravenous; conditions: in vivo
[12] = Cmax in Sprague-Dawley rat at 3.7 mg/kg, po; type: ADME, organism-based; design: dose 3.7 mg/kg, route oral; conditions: in vivo
[13] = Volume of distribution in Sprague-Dawley rat at 1.2 mg/kg, iv; type: ADME, organism-based; design: dose 1.2 mg/kg, route intravenous; conditions: in vivo, read-out: Vdss
[14] = Half life in Sprague-Dawley rat at 1.2 mg/kg, iv; type: ADME, organism-based; design: dose 1.2 mg/kg, route intravenous; conditions: in vivo
[15] = Clearance in Sprague-Dawley rat at 1.2 mg/kg, iv; type: ADME, organism-based; design: dose 1.2 mg/kg, route intravenous; conditions: in vivo
[16] = Oral bioavailability in Sprague-Dawley rat at 3.7 mg/kg, po; type: ADME, organism-based; conditions: in vivo
[17] = Oral bioavailability in Sprague-Dawley rat at 2.1 mg/kg, po; type: ADME, organism-based; conditions: in vivo
[18] = Cmax in Sprague-Dawley rat at 2.1 mg/kg, po; type: ADME, organism-based; design: dose 2.1 mg/kg, route oral; conditions: in vivo
[19] = Clearance in Sprague-Dawley rat at 2.1 mg/kg, iv; type: ADME, organism-based; design: dose 2.1 mg/kg, route intravenous; conditions: in vivo
[20] = Volume of distribution in Sprague-Dawley rat at 2.1 mg/kg, iv; type: ADME, organism-based; design: dose 2.1 mg/kg, route intravenous; conditions: in vivo, read-out: Vdss
[21] = Cmax in Sprague-Dawley rat at 2.1 mg/kg, iv; type: ADME, organism-based; design: dose 2.1 mg/kg, route intravenous; conditions: in vivo
[22] = Half life in Sprague-Dawley rat at 2.1 mg/kg, iv; type: ADME, organism-based; design: dose 2.1 mg/kg, route intravenous; conditions: in vivo
Homo sapiens [23] = organism: Homo sapiens; test: Selectivity for ROCK1 over CDK2
Homo sapiens [24] = organism: Homo sapiens; test: Selectivity for ROCK1 over GSK3-beta
[25] = Plasma concentration in spontaneously hypertensive rat at 3 mg/kg, po after 1 hr; type: ADME, organism-based; design: dose 3 mg/kg, route oral
[26] = Plasma concentration in spontaneously hypertensive rat at 3 mg/kg, po after 4 hrs; type: ADME, organism-based; design: dose 3 mg/kg, route oral
[27] = Clearance in Sprague-Dawley rat at 1.6 mg/kg, iv; type: ADME, organism-based; design: dose 1.6 mg/kg, route intravenous; conditions: in vivo
[28] = Volume of distribution in Sprague-Dawley rat at 1.6 mg/kg, iv; type: ADME, organism-based; design: dose 1.6 mg/kg, route intravenous; conditions: in vivo, read-out: Vdss
[29] = Oral bioavailability in Sprague-Dawley rat at 3.3 mg/kg, po; type: ADME, organism-based; conditions: in vivo
Rattus norvegicus [30] = test: Reduction of mean arterial blood pressure in spontaneous hypertensive rat at 1 mg/kg, po; type: functional, organism-based; design: dose 1 mg/kg
[31] = Cmax in Sprague-Dawley rat at 3.3 mg/kg, po; type: ADME, organism-based; design: dose 3.3 mg/kg, route oral; conditions: in vivo
[32] = Cmax in Sprague-Dawley rat at 1.6 mg/kg, iv; type: ADME, organism-based; design: dose 1.6 mg/kg, route intravenous; conditions: in vivo
[33] = Plasma concentration in spontaneously hypertensive rat at 3 mg/kg, po after 0.5 hrs; type: ADME, organism-based; design: dose 3 mg/kg, route oral
[34] = Half life in Sprague-Dawley rat at 1.6 mg/kg, iv; type: ADME, organism-based; design: dose 1.6 mg/kg, route intravenous; conditions: in vivo
Rattus norvegicus [35] = test: Reduction of mean arterial blood pressure in spontaneous hypertensive rat at 0.3 mg/kg, po; type: functional, organism-based; design: dose 0.3 mg/kg
Rattus norvegicus [36] = test: Reduction of mean arterial blood pressure in spontaneous hypertensive rat at 3 mg/kg, po; type: functional, organism-based; design: dose 3 mg/kg
[37] = Plasma concentration in spontaneously hypertensive rat at 3 mg/kg, po after 8 hrs; type: ADME, organism-based; design: dose 3 mg/kg, route oral
[38] = Plasma concentration in spontaneously hypertensive rat at 3 mg/kg, po after 2 hrs; type: ADME, organism-based; design: dose 3 mg/kg, route oral
[39] = Half life in Sprague-Dawley rat at 1.1 mg/kg, iv; type: ADME, organism-based; design: dose 1.1 mg/kg, route intravenous; conditions: in vivo
[40] = Cmax in Sprague-Dawley rat at 1.1 mg/kg, iv; type: ADME, organism-based; design: dose 1.1 mg/kg, route intravenous; conditions: in vivo
[41] = Clearance in Sprague-Dawley rat at 1.1 mg/kg, iv; type: ADME, organism-based; design: dose 1.1 mg/kg, route intravenous; conditions: in vivo
[42] = Volume of distribution in Sprague-Dawley rat at 1.1 mg/kg, iv; type: ADME, organism-based; design: dose 1.1 mg/kg, route intravenous; conditions: in vivo, read-out: Vdss
[43] = Half life in Sprague-Dawley rat at 2.4 mg/kg, iv; type: ADME, organism-based; design: dose 2.4 mg/kg, route intravenous; conditions: in vivo
[44] = Clearance in Sprague-Dawley rat at 2.4 mg/kg, iv; type: ADME, organism-based; design: dose 2.4 mg/kg, route intravenous; conditions: in vivo
[45] = Cmax in Sprague-Dawley rat at 2.4 mg/kg, iv; type: ADME, organism-based; design: dose 2.4 mg/kg, route intravenous; conditions: in vivo
[46] = Volume of distribution in Sprague-Dawley rat at 2.4 mg/kg, iv; type: ADME, organism-based; design: dose 2.4 mg/kg, route intravenous; conditions: in vivo, read-out: Vdss
[47] = Half life in Sprague-Dawley rat at 0.85 mg/kg, iv; type: ADME, organism-based; design: dose 0.85 mg/kg, route intravenous; conditions: in vivo
[48] = Oral bioavailability in Sprague-Dawley rat at 2 mg/kg, po; type: ADME, organism-based; conditions: in vivo
[49] = Clearance in Sprague-Dawley rat at 0.85 mg/kg, iv; type: ADME, organism-based; design: dose 0.85 mg/kg, route intravenous; conditions: in vivo
[50] = Cmax in Sprague-Dawley rat at 2 mg/kg, po; type: ADME, organism-based; design: dose 2 mg/kg, route oral; conditions: in vivo
[51] = Volume of distribution in Sprague-Dawley rat at 0.85 mg/kg; type: ADME, organism-based; design: dose 0.85 mg/kg; conditions: in vivo, read-out: Vdss
[52] = Cmax in Sprague-Dawley rat at 0.85 mg/kg, iv; type: ADME, organism-based; design: dose 0.85 mg/kg, route intravenous; conditions: in vivo

Row | IC50 [4] [nM] | Selectivity ratio (Homo sapiens [6]) | Selectivity ratio (Homo sapiens [7]) | IC50 (Aorta) [nM] | Selectivity ratio (Homo sapiens [9]) | Selectivity ratio (Homo sapiens [23]) | Selectivity ratio (Homo sapiens [24]) | SMILES | also measured
1 | ≤ 1 | > 80 | > 52 | 74 | > 3 | – | – | CCn1c(-c2nonc2N)nc2cnc(Oc3cccc(NC(=O)c4ccc(CN(C)C)cc4)c3)cc21 | half-life [1]: 1.9 h; Cmax [2]: 160 ng/mL; bioavailability [3]: 47%; clearance [5]: 30 mL/min/kg; Vd [8]: 2.4 L/kg; Cmax [10]: 630 ng/mL
2 | 4 | 3.8 | 2.2 | 106 | 3 | – | – | CCn1c(-c2nonc2N)nc2cnc(Oc3cccc(NC(=O)c4ccccc4)c3)cc21 | Cmax [11]: 11700 ng/mL; Cmax [12]: 6940 ng/mL; Vd [13]: 0.16 L/kg; half-life [14]: 9.6 h; clearance [15]: 0.18 mL/min/kg; bioavailability [16]: 35%
3 | ≤ 1 | > 60 | > 26 | 59 | > 10 | – | – | CCn1c(-c2nonc2N)nc2cnc(Oc3cccc(NC(=O)c4ccc(N5CCOCC5)cc4)c3)cc21 | bioavailability [17]: 23%; Cmax [18]: 890 ng/mL; clearance [19]: 8.6 mL/min/kg; Vd [20]: 0.57 L/kg; Cmax [21]: 1500 ng/mL; half-life [22]: 0.9 h
4 | 4.4 | 18 | 2.3 | – | 15 | 55 | 250 | CCn1c(-c2nonc2N)nc2cnc(OC)cc21 | –
5 | – | – | – | 35 | – | – | – | CCn1c(-c2nonc2N)nc2cnc(Oc3cccc(NC(=O)c4ccc(OCCN5CCOCC5)cc4)c3)cc21 [GSK-269962A] | concentration at 1 h [25]: 330 ng/mL; concentration at 4 h [26]: 150 ng/mL; clearance [27]: 7.6 mL/min/kg; Vd [28]: 1.3 L/kg; bioavailability [29]: 78%; Activity (Rattus norvegicus [30]): Active; Cmax [31]: 800 ng/mL; Cmax [32]: 1270 ng/mL; concentration at 0.5 h [33]: 280 ng/mL; half-life [34]: 2.2 h; Activity (Rattus norvegicus [35]): Active; Activity (Rattus norvegicus [36]): Active; concentration at 8 h [37]: 88 ng/mL; concentration at 2 h [38]: 290 ng/mL
6 | 30 | 10 | 1.5 | – | 18 | > 130 | > 500 | CCn1c(-c2nonc2N)nc2cnc(Oc3ccccc3)cc21 | –
7 | ≤ 1 | > 120 | > 35 | 102 | > 10 | – | – | CCn1c(-c2nonc2N)nc2cnc(Oc3cccc(NC(=O)c4ccc(CN5CCOCC5)cc4)c3)cc21 | Cmax [2]: 684 ng/mL; bioavailability [3]: 64%; half-life [39]: 1.4 h; Cmax [40]: 1100 ng/mL; clearance [41]: 10.7 mL/min/kg; Vd [42]: 1.1 L/kg
8 | 13 | 12 | 12 | – | 6.2 | 460 | > 1000 | CCn1c(-c2nonc2N)nc2cnc(Oc3cccc(C(C)=O)c3)cc21 | –
9 | ≤ 1 | > 70 | > 70 | 107 | > 17 | – | – | CCn1c(-c2nonc2N)nc2cnc(Oc3cccc(NC(=O)c4ccc(CN)cc4)c3)cc21 | half-life [1]: 1.4 h; Cmax [2]: 255 ng/mL; bioavailability [3]: 4%; clearance [5]: 2.3 mL/min/kg; Vd [8]: 0.11 L/kg; Cmax [10]: 9900 ng/mL
10 | 1.8 | 18 | 2.8 | – | 14 | > 1000 | > 1000 | CCn1c(-c2nonc2N)nc2cnc(Oc3cccc(NC(C)=O)c3)cc21 | –
11 | ≤ 1 | > 80 | > 65 | 79 | > 3 | – | – | CCn1c(-c2nonc2N)nc2cnc(Oc3cccc(NC(=O)c4ccc(OCCN(C)C)cc4)c3)cc21 | half-life [43]: 2.1 h; clearance [44]: 121 mL/min/kg; bioavailability [29]: 40%; Cmax [45]: 410 ng/mL; Cmax [31]: 410 ng/mL; Vd [46]: 8.9 L/kg
12 | 2 | 45 | 13 | 106 | 7 | – | – | CCn1c(-c2nonc2N)nc2cnc(Oc3cccc(NC(=O)c4ccc(N(C)C)cc4)c3)cc21 [GSK-248233A] | half-life [47]: 8.6 h; bioavailability [48]: 11%; clearance [49]: 0.14 mL/min/kg; Cmax [50]: 3620 ng/mL; Vd [51]: 0.09 L/kg; Cmax [52]: 18600 ng/mL
13 | 18 | 8.9 | 9.4 | – | 13 | 320 | 300 | CCn1c(-c2nonc2N)nc2cnc(Oc3cccc(N)c3)cc21 | –
14 | 33 | 2.7 | 3.9 | – | 0.7 | – | 150 | CCn1c(-c2nonc2N)nc2cnc(Oc3cccc(S(C)(=O)=O)c3)cc21 | –
15 | 90 | 12 | 9.7 | – | 9.2 | 110 | > 160 | CCn1c(-c2nonc2N)nc2cnc(Oc3ccc(NC(C)=O)cc3)cc21 | –

Row | SMILES | IC50 [4] [nM] | Selectivity ratio (Homo sapiens [6]) | Selectivity ratio (Homo sapiens [7]) | IC50 (Aorta) [nM] | Selectivity ratio (Homo sapiens [9]) | Selectivity ratio (Homo sapiens [23]) | Selectivity ratio (Homo sapiens [24]) | also measured
16 | CCn1c(-c2nonc2N)nc2cnccc21 | 19 | 0.63 | 0.18 | – | 3.1 | 22 | 53 | –
